This passage reports MIC results from DBAASP.

The MIC is the least concentration at which growth counts as inhibited. Read a low MIC as inhibition by little substance.

Some test systems named below: Candida albicans MDM8; Aspergillus niger A296; Aspergillus flavus; Pseudomonas aeruginosa; Candida krusei ATCC 6258; Staphylococcus aureus MR; Escherichia coli ESBL; Streptococcus pneumoniae; Staphylococcus aureus; Escherichia coli 1005; Candida albicans; Escherichia coli; Klebsiella pneumoniae.
Holding throughout (assay): ≥ marks a high value that may be exact or a test limit, other limits are often not marked, values filed in µg/mL are converted to µM
In assay [1] the test system is Saccharomyces cerevisiae ATCC 2601.
Assay [2] relates to Candida tropicalis IOC 4560.
Assay [3] deals with Candida parapsilosis IOC 4564.
For assay [4], the system named is Cryptococcus neoformans var. grubii H99.
Assay [5] concerns Aspergillus fumigatus NCPF 2109.
Assay [6] concerns Candida glabrata ATCC 2001.
Assay [7] deals with Cronobacter sakazakii ATCC 29544.
The subject of assay [8] is Candida parapsilosis ATCC 22019.
Assay [9] has as its system Candida albicans ATCC 14053.
Assay [10] deals with Pseudomonas aeruginosa ATCC 27853.
In assay [11] the test system is Klebsiella pneumoniae ATCC 700603.
Assay [12] has as its system Escherichia coli ATCC 25922.
The subject of assay [13] is Staphylococcus aureus ATCC 29213.
The test system of assay [14] is Escherichia coli ATCC 43827.
For assay [15], the system named is Staphylococcus epidermidis ATCC 12228.
Assay [16] concerns Bacillus subtilis ATCC 23857.
The subject of assay [17] is Candida tropicalis ATCC 750.
Assay [18] relates to Salmonella enterica subsp. enterica serovar Typhimurium ATCC 14028.
Assay [19] has as its system Streptococcus iniae KCTC 3657.
For assay [20], the system named is Bacillus cereus ATCC 10876.
Assay [21] concerns Candida parapsilosis CGMCC 2.3989.
Assay [22] has as its system Pseudomonas aeruginosa PAO1.
The test system of assay [23] is Candida krusei CGMCC 2.1857.
Assay [24] deals with Salmonella enterica subsp. enterica serovar Pullorum ATCC 7913.
In assay [25] the test system is Staphylococcus aureus ATCC 43300.
Assay [26] relates to Candida tropicalis CGMCC 2.1975.
Assay [27] has as its system Staphylococcus aureus ATCC 25923.
Assay [28] relates to Salmonella typhimurium CMCC 50013.
For assay [29], the system named is Bacillus subtilis KCTC 3068.

Molecules are shown by their SMILES. Values after ≈ are worked out from the molar mass of the structure shown. Values joined by “and” are separate entries in the source; they are usually repeats but may differ in a detail not shown here. Identical values can stand only once.

Take `CC(C)C[C@H](NC(=O)[C@H](CC(C)C)NC(=O)[C@H](CCCCN)NC(=O)[C@@H](N)Cc1ccccc1)C(=O)N[C@@H](CO)C(=O)N[C@@H](Cc1cnc[nH]1)C(=O)N[C@@H](CO)C(=O)N[C@@H](CC(C)C)C(=O)N[C@@H](CC(C)C)C(=O)N[C@H](C(=O)N[C@H](C(=O)N[C@@H](CC(C)C)C(=O)N[C@@H](C)C(=O)N[C@@H](CO)C(=O)N[C@@H](Cc1cnc[nH]1)C(=O)N[C@@H](CC(C)C)C(=O)N1CCC[C@H]1C(=O)O)[C@@H](C)O)C(C)C` [FKLLSHSLLVTLASHLP]: the MIC in [1] is 3.1 µM (≈ 5.82 µg/mL); in [2], 2.1 µM (≈ 3.94 µg/mL); against Candida albicans MDM8, 2.1 µM (≈ 3.94 µg/mL); in the assay on Aspergillus niger A296, 12.5 µM (≈ 23.5 µg/mL); in assay [3], 12.5 µM (≈ 23.5 µg/mL); in [4], 1.6 µM (≈ 3 µg/mL). Further, the results for the MIC (against Aspergillus flavus; in [5]) were ≥ 50 µM and 6.3 µM (≈ 11.8 µg/mL), respectively.
Take `CC(C)C[C@H](NC(=O)[C@H](Cc1cnc[nH]1)NC(=O)[C@H](CC(C)C)NC(=O)[C@H](CO)NC(=O)[C@H](CC(C)C)NC(=O)[C@H](CCCCN)NC(=O)[C@H](Cc1ccccc1)NC(=O)[C@@H]1CCCN1)C(N)=O` [PFKLSLHL]: the MIC in the assay with Pseudomonas aeruginosa is 32 µM (≈ 30.5 µg/mL); in [6] it was 31.4 µM (≈ 30 µg/mL); in [7], ≥ 64 µM; in assay [8], ≥ 63.9 µM; in assay [9], ≥ 63.9 µM; in [10], 32 µM (≈ 30.5 µg/mL). Also, the MIC was 31.4 µM (≈ 30 µg/mL) against Candida krusei ATCC 6258; 64 µM (≈ 61 µg/mL) in [11]; 32 µM (≈ 30.5 µg/mL) in [12]; 128 µM (≈ 122 µg/mL) in assay [13]; ≥ 32 µM in assay [14]; ≥ 128 µM in the assay on Staphylococcus aureus MR. In addition, the MIC is ≥ 32 µM in the assay on Escherichia coli ESBL, 64 µM (≈ 61 µg/mL) in assay [15], ≥ 32 µM in [16] and 15.7 µM (≈ 15 µg/mL) in [17].
In the case of `CC[C@H](C)[C@H](NC(=O)[C@H](Cc1ccccc1)NC(=O)[C@@H](NC(=O)[C@H](CCCCN)NC(=O)[C@@H](NC(=O)[C@H](CCCCN)NC(=O)[C@H](CCCCN)NC(=O)[C@H](Cc1ccccc1)NC(=O)[C@@H](NC(=O)[C@H](CCCCN)NC(=O)[C@H](CCCN=C(N)N)NC(=O)[C@H](Cc1ccccc1)NC(=O)CNC(=O)[C@H](CCCCN)NC(=O)[C@H](CCCCN)NC(=O)[C@@H](NC(=O)[C@H](CCCCN)NC(=O)[C@H](CCCN=C(N)N)NC(=O)[C@H](Cc1ccccc1)NC(=O)[C@H](Cc1ccccc1)NC(=O)[C@H](CCCCN)NC(=O)[C@H](CCCCN)NC(=O)[C@H](Cc1ccccc1)NC(=O)[C@H](CCCN=C(N)N)NC(=O)[C@H](CCCCN)NC(=O)[C@@H](NC(=O)[C@@H](N)CCCN=C(N)N)C(C)C)[C@@H](C)CC)[C@@H](C)CC)[C@@H](C)O)[C@@H](C)CC)C(=O)NCC(=O)O` [RVKRFKKFFRKIKKGFRKIFKKTKIFIG], the MIC in assay [18] was 0.42 µM (≈ 1.5 µg/mL); in assay [10], 0.839 µM (≈ 3 µg/mL); in [19], 8.95 µM (≈ 32 µg/mL); in assay [12] it was 0.559 µM (≈ 2 µg/mL); in assay [13], > 35.8 µM; in assay [20], 12.9 µM (≈ 46 µg/mL).
Consider `NC(=O)[C@H](CCCN=C(N)N)NC(=O)[C@H](Cc1c[nH]c2ccccc12)NC(=O)[C@H](CCCN=C(N)N)NC(=O)[C@H](Cc1c[nH]c2ccccc12)NC(=O)[C@H](Cc1c[nH]c2ccccc12)NC(=O)[C@H](Cc1c[nH]c2ccccc12)NC(=O)[C@H](CCCN=C(N)N)NC(=O)[C@H](Cc1c[nH]c2ccccc12)NC(=O)[C@@H](N)CCCN=C(N)N` [RWRWWWRWR], for which the MIC in assay [21] is 16 µM (≈ 25.2 µg/mL); in [18] it was 4 µM (≈ 6.29 µg/mL); against Pseudomonas aeruginosa, 16 µM (≈ 25.2 µg/mL); against Streptococcus pneumoniae it was ≥ 32 µM; with Staphylococcus aureus it was 8 µM (≈ 12.6 µg/mL); in [22], 16 µM (≈ 25.2 µg/mL). Further, the MIC was 4 µM (≈ 6.29 µg/mL) in [23]; 4 µM and > 2 µM in assay [12]; 4 µM (≈ 6.29 µg/mL) in assay [13]; 2 µM (≈ 3.15 µg/mL) in the assay with Escherichia coli 1005; 2 µM (≈ 3.15 µg/mL) in [24]; 2.83 µM (≈ 4.45 µg/mL) with Candida albicans. Moreover, the MIC in the assay with Escherichia coli turned out to be 8 µM (≈ 12.6 µg/mL); in [25], 2 µM (≈ 3.15 µg/mL); in [15], 4 µM (≈ 6.29 µg/mL); in [26], 2 µM (≈ 3.15 µg/mL); in assay [27] it was 4 µM (≈ 6.29 µg/mL); against Klebsiella pneumoniae, 32 µM (≈ 50.3 µg/mL).
Regarding `CC[C@H](C)[C@H](NC(=O)[C@@H](N)CO)C(=O)N[C@@H](CO)C(=O)N[C@@H](CC(C)C)C(=O)N[C@@H](CC(C)C)C(=O)O` [SISLL], the MIC in assay [28] was ≥ 186 µM; in assay [12] it was 172 µM (≈ 91.4 µg/mL); in assay [13], 158 µM (≈ 83.9 µg/mL); in [29], ≥ 133 µM.
